Experimental data from publication PMC9173702 (ACS chemical biology, 2022).

Legend:
[1] = Human serum stability assay (RP-HPLC); settings: 50% (v/v) human serum, 50 μM peptide, 37 °C, up to 48 h, n = 3
Experimental: Human Serum Stability Assay: Stock solutions of the peptides (10 mM in DMSO) and reconstituted normal human serum (Thermo Scientific) were pre-equilibrated to 37 °C for 15 minutes in separate tubes. For each replicate, peptides and serum were combined to a final concentration of 50 μM and 50% (v/v) respectively, final volume of 150 μL. The reaction tubes were then incubated at 37 °C with 300 rpm shaking in an Eppendorf ThermoMixer. At each time point, 20 μL of the reaction was taken from each replicate and diluted with four-fold excess of cold acetone. The serum proteins were allowed to precipitate for 15 minutes at -20 °C and were removed by centrifugation at 14,000 g, 4 °C for 10 minutes. The supernatant was transferred to a new tube, diluted with the same volume of water, and were stored at -20 °C until HPLC analysis. Chromatographic separations were performed on a C18 reversed phase analytical column (Higgins Analytical, 150x4.6 mm, 5 μm pore size) using a 30-50% B linear gradient over 30 minutes. Solvent A consisted of 0.1% (v/v) TFA in water, and solvent B contained 90% acetonitrile, 0.1% TFA in water.

[2] = Solubility of stock solution for CD spectroscopy; format: physicochemical; settings: 5 mM stock in 10% acetonitrile
mice = experiment: In vivo glucose tolerance test (GTT); design: species or system mouse; settings: male B6 mice, 16 h fast, 10 nmol/kg IP peptide, then 2 g/kg IP glucose; blood glucose 0-120 min; n = 8; one-way ANOVA, Dunnett's post-test
Experimental: Given the promising activation and stability data, we next tested our peptides in vivo using a standard glucose tolerance test (GTT). More specifically, following a 16h fast, mice were injected intraperitoneally (IP) with 10 nmol/kg peptide followed by 2 g/kg of glucose.
In Vivo GTT Test: Male B6 mice at 10−12 weeks of age were housed (8 mice/cage) at a constant RT of 24 °C on a normal day-light cycle and provided a standard diet ad libitum. After 1 week of acclimatization, B6 mice (n = 8 per treatment arm) were fasted for 16 h overnight, and the following morning baseline blood glucose levels were measured (OneTouch), followed by intraperitoneal (IP) injection of vehicle (saline) or the indicated peptide (10 nmol/kg). Thirty minutes later, the mice were treated with a bolus IP injection of glucose (2 g/kg, 20% aqueous solution), followed by serial blood glucose monitoring at 0, 15, 30, 60, and 120 min. Samples for the measurement of blood glucose were obtained from the saphenous vein and collected into heparinized capillary tubes. All animal experiments were approved by and performed in accordance with the guidelines and regulations set forth by the Institutional Animal Care and Use Committee of the Dana-Farber Cancer Institute.

[3] = clinically marketed as Forteo; cited from earlier work

Compound: CC[C@H](C)[C@H](NC(=O)[C@H](Cc1ccccc1)NC(=O)[C@H](CCC(=O)O)NC(=O)[C@H](CCCCNC(=O)COCCOCCNC(=O)COCCOCCNC(=O)CC[C@H](NC(=O)CCCCCCCCCCCCCCCCC(=O)O)C(=O)O)NC(=O)[C@H](C)NC(=O)[C@H](C)NC(=O)[C@H](CCC(N)=O)NC(=O)CNC(=O)[C@H](CCC(=O)O)NC(=O)[C@H](CC(C)C)NC(=O)[C@H](Cc1ccc(O)cc1)NC(=O)[C@H](CO)NC(=O)[C@H](CO)NC(=O)[C@@H](NC(=O)[C@H](CC(=O)O)NC(=O)[C@H](CO)NC(=O)[C@@H](NC(=O)[C@H](Cc1ccccc1)NC(=O)[C@@H](NC(=O)CNC(=O)[C@H](CCC(=O)O)NC(=O)C(C)(C)NC(=O)[C@@H](N)Cc1cnc[nH]1)[C@@H](C)O)[C@@H](C)O)C(C)C)C(=O)N[C@@H](C)C(=O)N[C@@H](Cc1c[nH]c2ccccc12)C(=O)N[C@@H](CC(C)C)C(=O)N[C@H](C(=O)N[C@@H](CCCNC(=N)N)C(=O)NCC(=O)N[C@@H](CCCNC(=N)N)C(=O)NCC(=O)O)C(C)C [Semaglutide]
- stability in human serum (in words) [1]: almost no sign of degradation up to 48 h
- solubility as stock [2]: not soluble

Compound: CCCCCCCCCCCCCCCCCCOCCOCCOCCOCCOCCC(=O)N[C@@H](CO)C(=O)NCCCC[C@H](NC(=O)[C@H](C)NC(=O)[C@H](C)NC(=O)[C@H](CCC(N)=O)NC(=O)CNC(=O)[C@H](CCC(=O)O)NC(=O)[C@H](CC(C)C)NC(=O)[C@H](Cc1ccc(O)cc1)NC(=O)[C@H](CO)NC(=O)[C@H](CO)NC(=O)[C@@H](NC(=O)[C@H](CC(=O)O)NC(=O)[C@H](CO)NC(=O)[C@@H](NC(=O)[C@H](Cc1ccccc1)NC(=O)[C@@H](NC(=O)CNC(=O)[C@H](CCC(=O)O)NC(=O)C(C)(C)NC(=O)[C@@H](N)Cc1c[nH]cn1)[C@@H](C)O)[C@@H](C)O)C(C)C)C(=O)N[C@@H](CCC(=O)O)C(=O)N[C@@H](Cc1ccccc1)C(=O)N[C@H](C(=O)N[C@@H](C)C(=O)N[C@@H](Cc1c[nH]c2ccccc12)C(=O)N[C@@H](CC(C)C)C(=O)N[C@H](C(=O)N[C@@H](CCCCN)C(=O)NCC(=O)N[C@@H](CCCNC(=N)N)C(=O)NCC(=O)O)C(C)C)[C@@H](C)CC [G1]
- glycemic control in acute GTT (blood glucose AUC) compared to unmodified GLP-1 (mice): statistically significant glycemic control

Compound: PTH(1–34): clinically marketed by Eli Lilly as Forteo
- half-life in the blood [3]: ~ 5 minutes
